From ChEMBL document CHEMBL1201862, “PubChem BioAssay data set” (2004)
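Where inhibition never reached the appropriate level, the endpoint shown equals the highest concentration tested. Otherwise, values were interpolated linearly from a five-concentration, 48-hour dose response in 96-well plates. Here, GI50 denotes the concentration required for 50% inhibition of growth.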 The source made the active and inactive calls. Cut-off read from the data, not from the text of the source: active = GI50 up to about 1.1 µM and inactive = higher.

Columns and labels:
Assay in all cases: growth of human tumour cells (NCI), 48 h
[1] = tested on: NCI-H226
[2] = tested on: NCI-H460
[3] = tested on: ACHN
[4] = tested on: 786-0
[5] = tested on: SK-MEL-28
[6] = tested on: RPMI-8226
[7] = tested on: HL-60
[8] = tested on: MDA-N
[9] = tested on: Hs-578T
[10] = tested on: NCI-H23
[11] = tested on: SNB-19
[12] = tested on: SF-295
[13] = tested on: SR
[14] = tested on: MCF7
[15] = tested on: PC-3
[16] = tested on: RXF 393
[17] = tested on: IGROV-1
[18] = tested on: M14
[19] = tested on: SF-539
[20] = tested on: HCT-15
[21] = tested on: SW-620
[22] = tested on: HOP-62
[23] = tested on: UACC-257
[24] = tested on: HT-29
[25] = tested on: T47D
[26] = tested on: COLO 205
[27] = tested on: OVCAR-3
[28] = tested on: MDA-MB-435
[29] = tested on: A549
[30] = tested on: SK-MEL-2
[31] = tested on: K562
[32] = tested on: MDA-MB-231
[33] = tested on: SK-MEL-5
[34] = tested on: SN12C
[35] = tested on: HOP-92
[36] = tested on: TK-10
[37] = tested on: HCT-116
[38] = tested on: NCI/ADR-RES
[39] = tested on: OVCAR-8
[40] = tested on: EKVX
[41] = tested on: UO-31
[42] = tested on: A498
[43] = tested on: DU-145
[44] = tested on: SF-268
[45] = tested on: SK-OV-3
[46] = tested on: MOLT-4
[47] = tested on: CAKI-1
[48] = tested on: HCC 2998
[49] = tested on: BT-549
[50] = tested on: LOX IMVI
[51] = tested on: KM12
[52] = tested on: CCRF-CEM
[53] = tested on: Malme-3M
[54] = tested on: OVCAR-5
[55] = tested on: UACC-62
[56] = tested on: OVCAR-4
[57] = tested on: U-251
[58] = tested on: SNB-75

c1ccc2oc(-c3ccc(-c4nc5ccccc5o4)c4c3CC4)nc2c1
GI50 [1]: > 100 µM (inactive) | GI50 [2]: > 100 µM (inactive) | GI50 [3]: > 100 µM (inactive) | GI50 [4]: > 100 µM (inactive) | GI50 [5]: > 100 µM (inactive) | GI50 [6]: > 100 µM (inactive) | GI50 [7]: > 100 µM (inactive) | GI50 [8]: > 100 µM (inactive) | GI50 [9]: > 100 µM (inactive) | GI50 [10]: > 100 µM (inactive) | GI50 [11]: > 100 µM (inactive) | GI50 [12]: > 100 µM (inactive) | GI50 [13]: > 100 µM (inactive) | GI50 [14]: > 100 µM (inactive) | GI50 [15]: > 100 µM (inactive) | GI50 [16]: > 100 µM (inactive) | GI50 [17]: > 100 µM (inactive) | GI50 [18]: > 100 µM (inactive) | GI50 [19]: > 100 µM (inactive) | GI50 [20]: > 100 µM | GI50 [21]: > 100 µM (inactive) | GI50 [22]: > 100 µM (inactive) | GI50 [23]: > 100 µM (inactive) | GI50 [24]: > 100 µM (inactive) | GI50 [25]: > 100 µM (inactive) | GI50 [26]: > 100 µM (inactive) | GI50 [27]: > 100 µM (inactive) | GI50 [28]: > 100 µM (inactive) | GI50 [29]: > 100 µM (inactive) | GI50 [30]: > 100 µM (inactive) | GI50 [31]: > 100 µM (inactive) | GI50 [32]: > 100 µM (inactive) | GI50 [33]: > 100 µM (inactive) | GI50 [34]: > 100 µM (inactive) | GI50 [35]: > 100 µM (inactive) | GI50 [36]: > 100 µM (inactive) | GI50 [37]: > 100 µM (inactive) | GI50 [38]: > 100 µM (inactive) | GI50 [39]: > 100 µM (inactive) | GI50 [40]: > 100 µM (inactive) | GI50 [41]: > 100 µM (inactive) | GI50 [42]: > 100 µM (inactive) | GI50 [43]: > 100 µM (inactive) | GI50 [44]: > 100 µM (inactive) | GI50 [45]: > 100 µM (inactive) | GI50 [46]: > 100 µM (inactive) | GI50 [47]: > 100 µM (inactive) | GI50 [48]: > 100 µM (inactive) | GI50 [49]: > 100 µM (inactive) | GI50 [50]: > 100 µM (inactive) | GI50 [51]: > 100 µM (inactive) | GI50 [52]: > 100 µM (inactive) | GI50 [53]: > 100 µM (inactive) | GI50 [54]: > 100 µM (inactive) | GI50 [55]: > 100 µM (inactive) | GI50 [56]: > 100 µM (inactive) | GI50 [57]: > 100 µM (inactive) | GI50 [58]: > 100 µM (inactive)
